The values below come from patent publication EP0003008A1 (priority 1977, dated 1979).

The conditions of data set [1]: 10 µmol intraperitoneally, urine from two male mice.
Data set [2] is described as follows: Acid stability test in 0.1 N HCl, thin layer chromatography estimate of decomposition products. The data set is classed as physicochemical. Particulars: 100 µg compound applied. As to the method: The acid stability was investigated by dissolving 5 mg of each compound in 1 ml of 0.1 N HC1 in a test tube. For use as references 0.2 ml of each solution was withdrawn, immediately treated with 0.2 ml of a 10 % aqueous solution of NaHCO3 and frozen. The remaining 0.8 ml of each solution was incubated at 37°C for 2 hours. After incubation, 0.8 ml of a 10 % aqueous solution of NaHCO3 was added to each solution and the solutions were frozen. The incubated compounds and the reference compounds were ly ophilized to dryness and redissolved in distilled H20, 0.2 ml and 1.0 ml respectively, for each reference solution and incubated solution. The solutions were applied to silica gel (Merck PF254, 20x20 cm) and polyethylene imine (Macherey-Nagel PEI, 20x20 cm) thin layer plates. A total of 20 µl of the reference solutions (100 µg compound) and 25 µl of the incubated solutions (100 µg compound) were applied. To each plate was also added, as references, solutions of phosphorous acid (H2HPO3) (5 and 20 µg) and of trisodiumphosphonoformate (5 and 20 µg). (Decomposition of phosphonoformic acid at low pH produces phosphorous acid).
The silica gel plates were prepared in duplicate and eluted with a solution composed of methanol - 10% aq ammonia - trichloroacetic acid - water (50-15-5-3, v/v) and the polyethylene imine plates were eluted with a 1M aq lithium chloride solution. After elution the plates were dried. One of the duplicated silica gel plates was sprayed with 4 % aq . (NH4)2MoO4 and the polyethylene imine plates were sprayed with a solution composed of 60 % HClO4 - 0.1N aq Hcl - 4% aq (NH4)2MoO4 - H2O (5-10-25-60, v/v). The silica gel plates were hriefly dried at 80-90°C and sprayed with 1% SnCl2 in 10% aq RCl. phosphorous acid and phosphonic acid groups appeared as blue apots on the siliea gel plates (System 1) and as white spots on the polyethylene imine plates (System II). The remaining duplicate silica gel plates were exposed to iodine vapor for detection of di- and triesters of phosphonoformic acid. […]

The subject of data set [3] is influenza (WSN Wilson Smith Neurotropic type A). Kind of data set: Plaque assay of influenza (WSN) on cell monolayers. The data set is classed as cell-based, influenza virus (WSN). Particulars: conc. of test compound 500 μM, 34°C for 4 days, two values given.
Data set [4] has as its target cell-free influenza polymerase (Influenza A virus, UniProt P03431). As to the kind of experiment: Cell-free influenza polymerase assay. It counts as biochemical. Conditions: in diluted urine; assay mixture includes Mn2+; used as standard; read-out: 50% inhibition.
The mark [5] stands for this setting: incubated in 0.1 N HCl at 37°C for 2 hours.

Values joined by “and” are separate entries in the source; they are usually repeats but may differ in a detail not shown here. Identical values can stand only once. Like-named read-outs stand apart in the source and are kept apart here. Bounds are passed on as bounds.

Sequence of cell-free influenza polymerase (P03431 whole entry, looked up): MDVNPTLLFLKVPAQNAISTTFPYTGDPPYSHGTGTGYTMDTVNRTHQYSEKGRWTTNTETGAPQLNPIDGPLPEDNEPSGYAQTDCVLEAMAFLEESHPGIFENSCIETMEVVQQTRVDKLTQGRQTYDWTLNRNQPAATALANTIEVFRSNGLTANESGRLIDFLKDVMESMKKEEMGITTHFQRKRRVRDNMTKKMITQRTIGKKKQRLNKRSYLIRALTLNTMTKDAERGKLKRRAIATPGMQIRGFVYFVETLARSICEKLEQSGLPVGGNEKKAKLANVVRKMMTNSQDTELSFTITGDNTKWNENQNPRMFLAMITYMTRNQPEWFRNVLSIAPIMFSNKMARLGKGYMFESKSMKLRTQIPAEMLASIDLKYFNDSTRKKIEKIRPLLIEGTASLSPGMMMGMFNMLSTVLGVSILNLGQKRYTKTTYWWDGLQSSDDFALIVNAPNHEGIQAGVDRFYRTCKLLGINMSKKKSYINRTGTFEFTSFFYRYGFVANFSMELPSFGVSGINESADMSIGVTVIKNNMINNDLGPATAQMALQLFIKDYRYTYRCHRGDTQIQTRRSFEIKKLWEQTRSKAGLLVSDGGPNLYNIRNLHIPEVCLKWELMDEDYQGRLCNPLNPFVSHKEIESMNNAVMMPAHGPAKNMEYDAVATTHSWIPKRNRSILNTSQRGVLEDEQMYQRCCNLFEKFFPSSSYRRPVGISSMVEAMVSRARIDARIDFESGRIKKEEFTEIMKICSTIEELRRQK

With `O=C(O)P(=O)(O)O` [Trisodiumphosphonoformate, reference compound], the results for the “Recovered phosphonoformic acid activity in urine” value in data set [1] (Day 1), in data set [1] (Day 2) and in data set [1] (Day 3) were 1.25 µmol phosphonoformic acid, 0.13 µmol phosphonoformic acid and under 0.01 µmol phosphonoformic acid, respectively. For the same compound, the “Estimated formation of phosphorous acid” value in data set [2] (setting [5]) was over 20 µg.
In the case of `CCOP(=O)(OCC)C(=O)N(CC)CC` [VIS 228, diethyl diethylcarbamoylphosphonate], in data set [3], the “Inhibition (%)” value is 25% and 37%.
`NC(=O)P(=O)(O)O` [R1=Na R2=Na R4=H R5=H]: the figures for the “Estimated formation of phosphorous acid” value in data set [2] (setting [5]) and in data set [2] (non-incubated reference solution (figure in parenthesis)) were 15 µg and 5 µg, respectively.
For `O=C(O)P(=O)(O)O` [Phosfonoformic acid, phosphonoformic acid], the IC50 in data set [4] is 500 nM.
As to `CCN(CC)C(=O)P(=O)([O-])[O-].[Na+].[Na+]` [VIS 232, disodium diethylcarbamoylphosphonate], the “Recovered phosphonoformic acid activity in urine” value in data set [1] (Day 1) is 0.63 µmol phosphonoformic acid; in data set [1] (Day 2), 0.36 µmol phosphonoformic acid; in data set [1] (Day 3), under 0.01 µmol phosphonoformic acid.
